How the values were obtained:
[1] = molecular target: Muscarinic acetylcholine receptor M3 (Homo sapiens, UniProt P20309)
[2] = molecular target: T1, Alpha-1A adrenergic receptor (Homo sapiens, UniProt P35348)
T1 sequence (P35348 whole entry): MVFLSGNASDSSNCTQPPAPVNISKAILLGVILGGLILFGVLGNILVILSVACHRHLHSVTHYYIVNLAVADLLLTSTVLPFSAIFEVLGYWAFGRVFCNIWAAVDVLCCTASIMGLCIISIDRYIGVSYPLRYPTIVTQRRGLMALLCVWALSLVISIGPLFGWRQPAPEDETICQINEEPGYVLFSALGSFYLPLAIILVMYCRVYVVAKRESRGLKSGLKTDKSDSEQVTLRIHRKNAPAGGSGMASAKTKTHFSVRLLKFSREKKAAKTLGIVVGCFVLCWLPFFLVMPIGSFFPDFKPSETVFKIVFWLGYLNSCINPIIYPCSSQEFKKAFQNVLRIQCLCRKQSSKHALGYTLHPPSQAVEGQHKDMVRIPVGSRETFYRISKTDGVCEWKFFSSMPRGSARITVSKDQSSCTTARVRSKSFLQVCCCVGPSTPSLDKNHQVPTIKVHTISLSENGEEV

[3] = molecular target: Voltage-dependent N-type calcium channel subunit alpha-1B (Rattus norvegicus, UniProt Q02294); format: functional
[4] = molecular target: T2, Muscarinic acetylcholine receptor M1 (Homo sapiens, UniProt P11229); format: functional
T2 sequence (P11229 whole entry): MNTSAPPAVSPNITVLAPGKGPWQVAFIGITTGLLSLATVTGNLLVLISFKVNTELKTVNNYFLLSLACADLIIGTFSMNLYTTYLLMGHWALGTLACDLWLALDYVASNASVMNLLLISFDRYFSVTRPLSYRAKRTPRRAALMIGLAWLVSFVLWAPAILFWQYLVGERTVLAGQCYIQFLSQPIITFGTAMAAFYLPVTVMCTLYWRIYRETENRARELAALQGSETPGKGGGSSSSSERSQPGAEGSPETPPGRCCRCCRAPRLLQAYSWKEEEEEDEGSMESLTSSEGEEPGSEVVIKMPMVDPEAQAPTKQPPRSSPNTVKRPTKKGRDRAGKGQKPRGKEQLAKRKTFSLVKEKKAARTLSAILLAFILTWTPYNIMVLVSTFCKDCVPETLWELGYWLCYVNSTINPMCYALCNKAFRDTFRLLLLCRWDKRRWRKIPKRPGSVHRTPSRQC

[5] = molecular target: 5-hydroxytryptamine receptor 2B (Homo sapiens, UniProt P41595)
[6] = molecular target: Beta-3 adrenergic receptor (Homo sapiens, UniProt P13945)
[7] = molecular target: T3, Gastric inhibitory polypeptide receptor (Homo sapiens, UniProt P48546)
T3 sequence (P48546 whole entry): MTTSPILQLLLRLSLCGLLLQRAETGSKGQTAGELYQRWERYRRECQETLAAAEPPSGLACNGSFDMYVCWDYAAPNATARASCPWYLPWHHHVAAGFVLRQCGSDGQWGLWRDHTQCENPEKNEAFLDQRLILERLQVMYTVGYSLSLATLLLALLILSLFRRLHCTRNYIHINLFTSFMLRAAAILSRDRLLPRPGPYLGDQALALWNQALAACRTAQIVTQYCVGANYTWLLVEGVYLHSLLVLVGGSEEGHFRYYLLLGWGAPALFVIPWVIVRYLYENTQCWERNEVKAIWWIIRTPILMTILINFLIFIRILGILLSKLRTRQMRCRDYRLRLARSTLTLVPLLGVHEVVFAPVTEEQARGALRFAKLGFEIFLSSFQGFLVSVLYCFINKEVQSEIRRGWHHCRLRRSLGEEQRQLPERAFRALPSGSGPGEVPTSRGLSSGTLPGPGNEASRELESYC

[8] = molecular target: Gamma-aminobutyric acid receptor subunit alpha-1/alpha-2/beta-2/gamma-2 (Homo sapiens, UniProt P14867+P18507+P47869+P47870); format: protein-complex assay
Androgen receptor = molecular target: T4, Androgen receptor (Homo sapiens, UniProt P10275)
T4 sequence (P10275 whole entry): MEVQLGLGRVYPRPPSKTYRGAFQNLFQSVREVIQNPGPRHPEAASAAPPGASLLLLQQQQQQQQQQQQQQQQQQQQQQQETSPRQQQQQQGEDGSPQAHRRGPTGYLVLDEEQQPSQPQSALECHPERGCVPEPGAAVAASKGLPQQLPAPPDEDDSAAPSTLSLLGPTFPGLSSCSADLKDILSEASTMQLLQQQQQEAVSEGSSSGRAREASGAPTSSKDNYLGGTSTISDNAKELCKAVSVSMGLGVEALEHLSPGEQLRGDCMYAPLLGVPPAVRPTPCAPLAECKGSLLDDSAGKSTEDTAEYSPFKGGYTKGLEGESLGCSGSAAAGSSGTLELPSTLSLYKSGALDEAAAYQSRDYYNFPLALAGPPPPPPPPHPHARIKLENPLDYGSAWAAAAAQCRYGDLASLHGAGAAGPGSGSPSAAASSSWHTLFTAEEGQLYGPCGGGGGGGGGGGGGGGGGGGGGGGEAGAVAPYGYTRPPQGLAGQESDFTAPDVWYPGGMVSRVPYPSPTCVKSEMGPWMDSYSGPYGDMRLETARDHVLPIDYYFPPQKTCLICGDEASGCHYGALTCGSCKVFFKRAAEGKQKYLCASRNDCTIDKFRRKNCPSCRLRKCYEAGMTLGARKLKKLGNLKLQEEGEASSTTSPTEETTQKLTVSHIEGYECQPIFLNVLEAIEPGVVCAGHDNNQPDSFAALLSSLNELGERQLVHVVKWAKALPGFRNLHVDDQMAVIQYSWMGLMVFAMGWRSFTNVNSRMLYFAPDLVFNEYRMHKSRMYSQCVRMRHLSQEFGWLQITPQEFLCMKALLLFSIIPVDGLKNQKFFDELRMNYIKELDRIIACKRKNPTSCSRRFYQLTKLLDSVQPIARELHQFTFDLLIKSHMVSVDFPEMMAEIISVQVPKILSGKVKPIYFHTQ

[9] = molecular target: 5-hydroxytryptamine receptor 2A (Homo sapiens, UniProt P28223); format: functional, cell-based
Note: assay procedure not described here.

Sequence of Muscarinic acetylcholine receptor M3 (P20309 whole entry): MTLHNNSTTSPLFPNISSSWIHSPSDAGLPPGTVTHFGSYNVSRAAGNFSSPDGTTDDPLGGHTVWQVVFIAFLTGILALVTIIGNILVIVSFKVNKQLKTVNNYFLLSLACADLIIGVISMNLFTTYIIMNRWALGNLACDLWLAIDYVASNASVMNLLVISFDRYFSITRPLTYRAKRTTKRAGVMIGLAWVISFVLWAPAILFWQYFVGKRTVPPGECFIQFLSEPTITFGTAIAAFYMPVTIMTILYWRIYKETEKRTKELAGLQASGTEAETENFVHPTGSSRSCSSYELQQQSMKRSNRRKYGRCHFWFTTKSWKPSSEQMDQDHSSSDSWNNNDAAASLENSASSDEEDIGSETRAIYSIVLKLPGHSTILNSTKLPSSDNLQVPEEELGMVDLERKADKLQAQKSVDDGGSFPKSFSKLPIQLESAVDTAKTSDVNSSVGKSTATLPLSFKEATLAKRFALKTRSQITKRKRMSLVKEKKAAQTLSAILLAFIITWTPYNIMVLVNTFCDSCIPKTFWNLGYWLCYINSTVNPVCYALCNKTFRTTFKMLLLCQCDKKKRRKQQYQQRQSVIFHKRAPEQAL
Sequence of Voltage-dependent N-type calcium channel subunit alpha-1B (Q02294 whole entry): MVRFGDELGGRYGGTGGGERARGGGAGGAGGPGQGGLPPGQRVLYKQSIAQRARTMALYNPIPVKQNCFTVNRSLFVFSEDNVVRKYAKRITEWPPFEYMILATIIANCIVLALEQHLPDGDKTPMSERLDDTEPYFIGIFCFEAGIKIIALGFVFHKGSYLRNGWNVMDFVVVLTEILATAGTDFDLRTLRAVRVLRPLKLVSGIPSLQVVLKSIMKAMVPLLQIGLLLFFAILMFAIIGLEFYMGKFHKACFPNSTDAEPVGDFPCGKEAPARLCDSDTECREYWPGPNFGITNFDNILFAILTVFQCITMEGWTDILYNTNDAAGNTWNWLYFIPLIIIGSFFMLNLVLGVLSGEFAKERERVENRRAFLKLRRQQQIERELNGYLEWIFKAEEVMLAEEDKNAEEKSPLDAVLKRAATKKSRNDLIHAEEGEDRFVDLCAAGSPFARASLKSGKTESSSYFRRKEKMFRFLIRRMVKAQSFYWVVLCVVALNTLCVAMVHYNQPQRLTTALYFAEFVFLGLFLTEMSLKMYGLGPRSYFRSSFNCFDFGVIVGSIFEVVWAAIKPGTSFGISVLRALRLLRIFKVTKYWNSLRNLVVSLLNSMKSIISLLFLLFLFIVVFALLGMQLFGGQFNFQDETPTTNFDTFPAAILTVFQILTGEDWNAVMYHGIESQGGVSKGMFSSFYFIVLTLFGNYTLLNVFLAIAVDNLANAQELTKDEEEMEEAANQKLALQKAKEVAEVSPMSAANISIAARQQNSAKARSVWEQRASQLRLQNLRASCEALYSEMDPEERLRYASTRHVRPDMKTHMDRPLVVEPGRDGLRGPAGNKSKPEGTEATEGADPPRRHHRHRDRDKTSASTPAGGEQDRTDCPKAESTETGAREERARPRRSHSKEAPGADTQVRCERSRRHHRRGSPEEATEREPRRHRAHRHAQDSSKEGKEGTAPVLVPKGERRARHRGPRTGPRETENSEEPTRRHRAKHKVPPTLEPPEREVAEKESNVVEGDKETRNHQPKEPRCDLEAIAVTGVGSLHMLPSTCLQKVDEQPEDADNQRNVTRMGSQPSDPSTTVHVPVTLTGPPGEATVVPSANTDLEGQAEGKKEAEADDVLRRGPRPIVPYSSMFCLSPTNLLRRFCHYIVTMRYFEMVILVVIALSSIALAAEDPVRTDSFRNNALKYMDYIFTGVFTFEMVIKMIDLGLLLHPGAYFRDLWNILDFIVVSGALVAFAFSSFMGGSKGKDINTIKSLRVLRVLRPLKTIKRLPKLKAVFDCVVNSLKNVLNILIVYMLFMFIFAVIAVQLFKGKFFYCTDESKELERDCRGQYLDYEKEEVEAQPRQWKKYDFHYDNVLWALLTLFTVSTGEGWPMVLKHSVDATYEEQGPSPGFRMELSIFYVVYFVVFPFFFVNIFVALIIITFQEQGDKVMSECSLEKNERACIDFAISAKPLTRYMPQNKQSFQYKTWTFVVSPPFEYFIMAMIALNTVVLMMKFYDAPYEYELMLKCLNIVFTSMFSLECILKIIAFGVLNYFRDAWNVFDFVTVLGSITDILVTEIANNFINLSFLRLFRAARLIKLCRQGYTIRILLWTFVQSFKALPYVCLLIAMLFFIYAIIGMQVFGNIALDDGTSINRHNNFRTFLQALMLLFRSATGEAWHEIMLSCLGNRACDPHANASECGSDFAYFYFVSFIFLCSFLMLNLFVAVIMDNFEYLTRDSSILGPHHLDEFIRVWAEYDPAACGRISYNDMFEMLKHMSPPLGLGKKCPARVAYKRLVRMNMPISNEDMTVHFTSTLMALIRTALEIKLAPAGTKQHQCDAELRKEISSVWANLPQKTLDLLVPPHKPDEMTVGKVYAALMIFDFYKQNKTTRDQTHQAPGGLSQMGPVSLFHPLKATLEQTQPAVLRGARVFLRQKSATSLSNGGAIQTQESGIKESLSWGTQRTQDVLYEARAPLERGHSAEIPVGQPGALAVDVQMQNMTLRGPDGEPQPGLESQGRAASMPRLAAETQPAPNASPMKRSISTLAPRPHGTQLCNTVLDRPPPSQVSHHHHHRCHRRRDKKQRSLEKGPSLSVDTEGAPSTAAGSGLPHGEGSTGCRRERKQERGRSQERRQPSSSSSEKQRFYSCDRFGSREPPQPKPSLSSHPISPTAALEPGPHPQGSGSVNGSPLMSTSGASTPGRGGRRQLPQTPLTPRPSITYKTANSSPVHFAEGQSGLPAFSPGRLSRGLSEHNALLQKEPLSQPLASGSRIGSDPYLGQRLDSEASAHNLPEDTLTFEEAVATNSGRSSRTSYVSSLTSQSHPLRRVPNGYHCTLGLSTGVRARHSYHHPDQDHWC
Sequence of 5-hydroxytryptamine receptor 2B (P41595 whole entry): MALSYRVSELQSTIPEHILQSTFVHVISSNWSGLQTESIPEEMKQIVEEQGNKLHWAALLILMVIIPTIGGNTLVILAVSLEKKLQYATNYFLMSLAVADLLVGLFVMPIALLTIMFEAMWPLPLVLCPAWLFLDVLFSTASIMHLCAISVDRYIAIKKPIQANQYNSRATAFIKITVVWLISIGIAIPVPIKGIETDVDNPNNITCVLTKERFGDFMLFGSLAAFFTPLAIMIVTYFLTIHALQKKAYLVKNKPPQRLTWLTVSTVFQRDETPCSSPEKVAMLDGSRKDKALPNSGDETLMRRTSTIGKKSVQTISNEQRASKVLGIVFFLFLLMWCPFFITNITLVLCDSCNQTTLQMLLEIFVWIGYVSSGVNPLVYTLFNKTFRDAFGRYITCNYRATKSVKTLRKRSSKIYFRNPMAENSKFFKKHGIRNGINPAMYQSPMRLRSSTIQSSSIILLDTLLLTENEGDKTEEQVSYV
Sequence of Beta-3 adrenergic receptor (P13945 whole entry): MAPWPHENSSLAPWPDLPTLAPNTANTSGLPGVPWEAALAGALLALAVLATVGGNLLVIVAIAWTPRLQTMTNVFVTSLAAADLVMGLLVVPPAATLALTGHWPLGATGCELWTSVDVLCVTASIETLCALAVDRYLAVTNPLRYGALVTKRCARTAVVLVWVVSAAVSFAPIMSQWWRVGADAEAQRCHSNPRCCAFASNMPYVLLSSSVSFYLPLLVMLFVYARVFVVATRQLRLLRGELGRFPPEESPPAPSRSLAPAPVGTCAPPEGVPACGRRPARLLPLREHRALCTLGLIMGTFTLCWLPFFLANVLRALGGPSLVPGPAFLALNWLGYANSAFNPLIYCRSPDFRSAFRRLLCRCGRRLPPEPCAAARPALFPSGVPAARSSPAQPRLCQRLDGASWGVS
Sequence of 5-hydroxytryptamine receptor 2A (P28223 whole entry): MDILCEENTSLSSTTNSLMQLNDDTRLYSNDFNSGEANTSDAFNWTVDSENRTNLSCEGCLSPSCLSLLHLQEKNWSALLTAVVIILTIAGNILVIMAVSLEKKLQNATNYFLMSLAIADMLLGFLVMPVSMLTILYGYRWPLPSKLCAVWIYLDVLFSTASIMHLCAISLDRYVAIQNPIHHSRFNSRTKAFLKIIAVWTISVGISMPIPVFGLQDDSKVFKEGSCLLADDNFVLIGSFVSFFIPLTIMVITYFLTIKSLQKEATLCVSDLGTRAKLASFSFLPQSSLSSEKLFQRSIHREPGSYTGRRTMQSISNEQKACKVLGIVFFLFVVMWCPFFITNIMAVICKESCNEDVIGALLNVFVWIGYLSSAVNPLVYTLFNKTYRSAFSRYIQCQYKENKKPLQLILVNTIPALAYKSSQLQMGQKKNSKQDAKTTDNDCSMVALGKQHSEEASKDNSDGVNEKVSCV

SMILES	AC50 [1] [µM]	AC50 [2] [µM]	AC50 [3] [µM]	AC50 [4] [µM]	AC50 [5] [µM]	AC50 [6] [µM]	AC50 [7] [µM]	AC50 [8] [µM]	AC50 (Androgen receptor) [µM]	AC50 [9] [µM]
CCCN(CCC)C(=O)Cc1c(-c2ccc(Cl)cc2)nc2ccc(Cl)cn12 [ALPIDEM]	> 30	> 30	> 10	> 30	> 10	–	–	–	–	–
COc1ccccc1Oc1c(NS(=O)(=O)c2ccc(C(C)(C)C)cc2)nc(-c2ncccn2)nc1OCCO [BOSENTAN]	> 30	> 10	> 10	> 10	> 10	> 30	> 30	–	–	–
COc1cc2nccc(Oc3ccc(NC(=O)C4(C(=O)Nc5ccc(F)cc5)CC4)cc3)c2cc1OC [CABOZANTINIB]	> 30	–	–	> 30	–	–	–	> 30	> 30	2.9
COc1ccccc1OCCNCC(O)COc1cccc2[nH]c3ccccc3c12 (stereo not drawn) [CARVEDILOL]	–	0.0194	> 10	–	0.0101	–	> 30	–	–	–
C[C@@H](Oc1cc(-c2cnn(C3CCNCC3)c2)cnc1N)c1c(Cl)ccc(F)c1Cl [CRIZOTINIB]	> 30	–	–	> 30	0.316	14.2	–	–	–	–
CC(C)N(CCC(C(N)=O)(c1ccccc1)c1ccccn1)C(C)C (stereo not drawn) [DISOPYRAMIDE]	> 30	> 10	> 10	> 10	–	8.37	> 30	–	–	–
C[C@H]1c2cccc(O)c2C(=O)C2=C(O)[C@]3(O)C(=O)C(C(N)=O)=C(O)[C@@H](N(C)C)[C@@H]3[C@@H](O)[C@@H]21 [DOXYCYCLINE]	–	3.4	> 10	–	> 10	> 30	> 30	–	–	–
CC(C)Cc1ccc(C(C)C(=O)O)cc1 (stereo not drawn) [IBUPROFEN]	–	> 10	> 10	–	> 10	7.12	> 30	> 30	–	–
FC(F)(F)c1ccc(CNc2ccc(Cc3c[nH]c4ncc(Cl)cc34)cn2)cn1 [PEXIDARTINIB]	–	–	–	–	–	–	–	> 3	> 30	–
CC(CN1CC(=O)NC(=O)C1)N1CC(=O)NC(=O)C1 (stereo not drawn) [RAZOXANE]	–	–	–	–	–	–	–	> 30	> 30	–
CO[C@H]1/C=C/O[C@@]2(C)Oc3c(C)c(O)c4c(O)c(c(/C=N/N5CCN(C)CC5)c(O)c4c3C2=O)NC(=O)/C(C)=C\C=C\[C@H](C)[C@H](O)[C@@H](C)[C@@H](O)[C@@H](C)[C@H](OC(C)=O)[C@@H]1C [RIFAMPIN]	–	2.33	> 10	–	> 10	32.6	> 30	–	–	–
CN(C)CCc1c[nH]c2ccc(Cn3cncn3)cc12 [RIZATRIPTAN]	> 30	> 10	> 10	> 30	12	> 30	> 30	–	–	–
N[C@@H](CC(=O)N1CCn2c(nnc2C(F)(F)F)C1)Cc1cc(F)c(F)cc1F [SITAGLIPTIN]	> 30	–	> 10	> 30	> 10	–	–	–	–	–
Nc1ccc(S(=O)(=O)Nc2nccs2)cc1 [SULFATHIAZOLE]	–	5.1	> 10	–	> 10	> 30	> 30	–	–	–
C=CC[C@@H]1/C=C(\C)C[C@H](C)C[C@H](OC)[C@H]2O[C@@](O)(C(=O)C(=O)N3CCCC[C@H]3C(=O)O[C@H](/C(C)=C/[C@@H]3CC[C@@H](O)[C@H](OC)C3)[C@H](C)[C@@H](O)CC1=O)[C@H](C)C[C@@H]2OC [TACROLIMUS ANHYDROUS]	–	> 10	> 10	–	> 10	12.2	> 30	–	–	–
CC(C)OC(=O)CCC/C=C\C[C@@H]1[C@@H](/C=C/C(F)(F)COc2ccccc2)[C@H](O)C[C@@H]1O [TAFLUPROST]	–	–	–	–	–	–	–	> 30	> 30	–
COc1cc2nc(N3CCN(C(=O)C4CCCO4)CC3)nc(N)c2cc1OC (stereo not drawn) [TERAZOSIN]	–	–	> 10	–	> 10	> 30	> 30	–	–	–
Cc1onc(-c2ccccc2)c1-c1ccc(S(N)(=O)=O)cc1 [VALDECOXIB]	–	> 10	> 10	–	> 10	> 30	> 30	> 30	–	–
CCCC(CCC)C(=O)O [VALPROIC ACID]	–	–	> 10	–	> 10	> 30	> 30	–	–	–
